Legend:
[1] = system: MDA-MB-436; assay: Cell growth inhibition, MDA-MB-436 breast cancer cells (WST-8); assay type: cell-based; conditions: Homo sapiens, 96 h; MDA-MB-436 cells, 4 days; read-out: Cellular data MDA-MB-436 IC50
Method in brief: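 IC50 was computed from WST-8-based cell counting in MDA-MB-436 cells, with absorbance read at 450 nm.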

[2] = molecular target: T1, recombinant BRD4 BD2 (Homo sapiens, UniProt O60885); assay: Competitive fluorescence-polarization (FP) binding assay, BRD4 BD2; conditions: FP competitive binding, BRD4 BD2; for IC50: read-out: Binding affinities (FP) BRD4BD2 IC50; for Ki: read-out: Binding affinities (FP) BRD4BD2 Ki
T1 construct: for recombinant BRD4 BD1 and BRD4 BD2 proteins
Method in brief: (§1)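 FP competition with FAM-labelled probe (ZBA248 or BRD-1F) against preincubated protein/probe complex; BD1 at 10 nM and BD2 at 6 nM final, in 100 mM potassium phosphate pH 6.5, 0.01% Triton X-100. 30 min, room temperature. IC50 by nonlinear regression; Ki also derived, using probe Kd from protein saturation.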

[3] = system: LNCaP; assay: Cell growth inhibition, LNCaP prostate cancer cells (Cell-Titer GLO); assay type: cell-based; conditions: Homo sapiens, read-out: Cellular data LNCaP IC50
[4] = molecular target: T2, recombinant BRD4 BD1 (Homo sapiens, UniProt O60885); assay: Competitive fluorescence-polarization (FP) binding assay, BRD4 BD1; conditions: FP competitive binding, BRD4 BD1; for IC50: read-out: Binding affinities (FP) BRD4BD1 IC50; for Ki: read-out: Binding affinities (FP) BRD4BD1 Ki
T2 construct: for recombinant BRD4 BD1 and BRD4 BD2 proteins
Method in brief: as §1

IC50 [1] [µM]	IC50 [2] [µM]	Ki [2] [µM]	IC50 [3] [µM]	IC50 [4] [µM]	Ki [4] [µM]	SMILES
0.351	0.0036	0.0057	0.116	0.0061	0.002	COc1cc2c(cc1-c1c(C)noc1C)[nH]c1nc(C)nc(Nc3cc(C4CC4)nn3C[C@H](O)CO)c12 [Cpd. No. 281]
0.033	0.0005	0.001	0.022	0.0061	0.0013	COc1cc2c(cc1-c1c(C)noc1C)[nH]c1nc(C)nc(Nc3cc(C4CC4)nn3CC3COCCO3)c12 (centres unmarked) [Cpd. No. 282, N-(1-((1,4-dioxan-2-yl)methyl)-3-cyclopropyl-1H-pyrazol-5-yl)-7-(3,5-dimethylisoxazol-4-yl)-6-methoxy-2-methyl-9H-pyrimido[4,5-b]indol-4-amine]
0.019	0.005	0.0009	0.012	0.0045	0.0006	COc1cc2c(cc1-c1c(C)noc1C)[nH]c1nc(C)nc(Nc3cc(C4CC4)nn3C3CCOCC3)c12 [Cpd. No. 283, N-(3-cyclopropyl-1-(tetrahydro-2H-pyran-4-yl)-1H-pyrazol-5-yl)-7-(3,5-dimethylisoxazol-4-yl)-6-methoxy-2-methyl-9H-pyrimido[4,5-b]indol-4-amine]
0.268	0.0106	0.0026	0.105	0.01	0.003	COc1cc2c(cc1-c1c(C)noc1C)[nH]c1nc(C)nc(Nc3cc(C4CC4)nn3CCN3CCOCC3)c12 [Cpd. No. 284, N-(3-cyclopropyl-1-(2-morpholinoethyl)-1H-pyrazol-5-yl)-7-(3,5-dimethylisoxazol-4-yl)-6-methoxy-2-methyl-9H-pyrimido[4,5-b]indol-4-amine]
0.058	0.0014	< 0.001	0.081	0.0031	< 0.001	COCCc1nc(Nc2cc(C3CC3)nn2C)c2c(n1)[nH]c1cc(-c3c(C)noc3C)c(OC)cc12 [Cpd. No. 287, N-(3-cyclopropyl-1-methyl-1H-pyrazol-5-yl)-7-(3,5-dimethylisoxazol-4-yl)-6-methoxy-2-(2-methoxyethyl)-9H-pyrimido[4,5-b]indol-4-amine]
0.013	0.0016	< 0.001	0.037	0.0049	< 0.001	COCCOCc1nc(Nc2cc(C3CC3)nn2C)c2c(n1)[nH]c1cc(-c3c(C)noc3C)c(OC)cc12 [Cpd. No. 288, N-(3-cyclopropyl-1-methyl-1H-pyrazol-5-yl)-7-(3,5-dimethylisoxazol-4-yl)-6-methoxy-2-((2-methoxyethoxy)methyl)-9H-pyrimido[4,5-b]indol-4-amine]
0.057	0.0022	< 0.001	0.13	0.0024	< 0.001	COc1cc2c(cc1-c1c(C)noc1C)[nH]c1nc(CS(C)(=O)=O)nc(Nc3cc(C4CC4)nn3C)c12 [Cpd. No. 289, N-(3-cyclopropyl-1-methyl-1H-pyrazol-5-yl)-7-(3,5-dimethylisoxazol-4-yl)-6-methoxy-2-((methylsulfonyl)methyl)-9H-pyrimido[4,5-b]indol-4-amine]
0.019	0.0045	< 0.001	0.012	0.0048	< 0.001	CCn1nc(C2CC2)cc1Nc1nc(N)nc2[nH]c3cc(-c4c(C)noc4C)c(OC)cc3c12 [Cpd. No. 290, N4-(3-cyclopropyl-1-ethyl-1H-pyrazol-5-yl)-7-(3,5-dimethylisoxazol-4-yl)-6-methoxy-9H-pyrimido[4,5-b]indole-2,4-diamine]
0.037	0.0049	0.001	0.02	0.0052	0.0015	COc1cc2c(cc1-c1c(C)noc1C)[nH]c1nc(N)nc(Nc3cc(C4CC4)nn3C3CC3)c12 [Cpd. No. 291, N4-(1,3-dicyclopropyl-1H-pyrazol-5-yl)-7-(3,5-dimethylisoxazol-4-yl)-6-methoxy-9H-pyrimido[4,5-b]indole-2,4-diamine]
0.012	0.0023	< 0.001	0.007	0.002	< 0.001	COc1cc2c(cc1-c1c(C)noc1C)[nH]c1nc(N)nc(Nc3c4c(nn3C(C)C)CCC4)c12 [Cpd. No. 292, 7-(3,5-dimethylisoxazol-4-yl)-N4-(2-isopropyl-2,4,5,6-tetrahydrocyclopenta[c]pyrazol-3-yl)-6-methoxy-9H-pyrimido[4,5-b]indole-2,4-diamine]
1.19	0.85	0.342	1.17	> 5		COc1c(-c2c(C)noc2C)cc2[nH]c3nc(C)nc(Nc4cc(C5CC5)nn4C)c3c2c1F [Cpd. No. 305]
0.067	0.043	0.01	0.534	0.129	0.03	COc1c(-c2c(C)noc2C)cc2[nH]c3nc(C)nc(N(C)c4cc(C5CC5)nn4C)c3c2c1F [Cpd. No. 306, N-(3-cyclopropyl-1-methyl-1H-pyrazol-5-yl)-7-(3,5-dimethylisoxazol-4-yl)-5-fluoro-6-methoxy-N,2-dimethyl-9H-pyrimido[4,5-b]indol-4-amine]
0.13	0.018	0.0043	0.059	0.016	0.0038	COc1cc2c([nH]c3nc(C)nc(Nc4cc(C5CC5)nn4C)c32)c(F)c1-c1c(C)noc1C [Cpd. No. 307, N-(3-cyclopropyl-1-methyl-1H-pyrazol-5-yl)-7-(3,5-dimethylisoxazol-4-yl)-8-fluoro-6-methoxy-2-methyl-9H-pyrimido[4,5-b]indol-4-amine]
0.181	0.025	0.0053	0.106	0.023	0.005	COc1cc2c([nH]c3nc(C)nc(N(C)c4cc(C5CC5)nn4C)c32)c(F)c1-c1c(C)noc1C [Cpd. No. 308, N-(3-cyclopropyl-1-methyl-1H-pyrazol-5-yl)-7-(3,5-dimethylisoxazol-4-yl)-8-fluoro-6-methoxy-N,2-dimethyl-9H-pyrimido[4,5-b]indol-4-amine]
0.141	0.04	0.013	0.136	0.018	0.0041	COc1cc2c([nH]c3ccnc(Nc4cc(C5CC5)nn4C)c32)c(F)c1-c1c(C)noc1C [Cpd. No. 309, N-(3-cyclopropyl-1-methyl-1H-pyrazol-5-yl)-7-(3,5-dimethylisoxazol-4-yl)-6-fluoro-8-methoxy-5H-pyrido[4,3-b]indol-1-amine]
0.015	0.0059	0.0012	0.021	0.0118	0.0016	COc1cc2c(cc1-c1c(C)noc1C)[nH]c1cncc(Nc3cc(C4CC4)nn3C)c12 [Cpd. No. 323, N-(3-Cyclopropyl-1-methyl-1H-pyrazol-5-yl)-7-(3,5-dimethylisoxazol-4-yl)-6-methoxy-9H-pyrido[3,4-b]indol-4-amine]
0.646	0.214	0.067	0.674	0.199	0.068	COc1nc2c(cc1-c1c(C)noc1C)[nH]c1nc(C)nc(Nc3cc(C4CC4)nn3C)c12 [compound 322, N-(3-cyclopropyl-1-methyl-1H-pyrazol-5-yl)-7-(3,5-dimethylisoxazol-4-yl)-6-methoxy-2-methyl-9H-pyrido[2′,3′:4,5]pyrrolo[2,3-d] pyrimidin-4-amine]
